What was measured:
MDA-MB-231 cells = assay: Cell proliferation by live-cell imaging (IncuCyte), MDA-MB-231 TNBC cells; assay type: cell-based; details: 40 μM, 48 and 72 h
Excerpt: TNBC represents approximately 10–15% of all breast cancers and is the most aggressive subtype of breast cancer. Patients with TNBC have a poor outcome compared to the other subtypes of breast cancer. In the breast cancer tissue, β-catenin is overexpressed compared to the normal tissue. The overexpression of β-catenin is associated with TNBC and lymph node metastasis. […] There is a quest for the development of new therapies to treat TNBC. […] Effects on cell proliferation of MDA-MB-231 TNBC cells were evaluated by live-time cell imaging using the Incucyte S5 system.
Figure 10 Inhibition of MDA-MB-231, HCC1806, and HCC1937 TNBC cell growth by compounds 5–10 and reference compounds 3, […], and iCRT3 at 40 μM. Cell growth inhibition was quantified using the IncuCyte cell-by-cell analysis software, by comparison with the growth of DMSO-treated cells at 72 h, set at 100% (mean ± SD, n = 3, one-way ANOVA, **p ≤ 0.01, ****p ≤ 0.0001).
Cell proliferation of breast cancer cell lines upon continuous treatment with select compounds was evaluated by the real-time quantitative live-cell imaging system. MDA-MB-231 (1500 cells/well), HCC1806 (2000 cells/well), and HCC1937 (3000 cells/well) were seeded in 96-well plates, treated with increasing doses of selected compounds and images (5 images/well) were acquired every 8 h for 3 days at 10× magnification in an IncuCyte SX5 live-content imaging system (Essen Bioscience) at 37 °C with 5% CO2. Images were analyzed using IncuCyte cell-by-cell analysis software to detect and quantify live cells (phase-contrast). The number of cells at each time point was quantified using IncuCyte cell-by-cell analysis software, and cell growth was evaluated as the normalized ratio between counted cells at each time point normalized to those counted at time 0. Graph drawing and statistical analyses were performed in GraphPad Prism according to the statistical tests described in the figure legends.

[1] = molecular target: T1, β-catenin Armadillo repeats domain (Homo sapiens, UniProt P35222); assay: Surface plasmon resonance binding of 9 to immobilized β-catenin Armadillo repeats domain; details: SPR, 25 °C, analyte 1.95-62.5 nM, 1:1 model; read-out: ka
T1 construct: GST (N, cleaved yes); made in house; host or cells: Escherichia coli BL21(DE3)
T1 sequence (P35222 133-664): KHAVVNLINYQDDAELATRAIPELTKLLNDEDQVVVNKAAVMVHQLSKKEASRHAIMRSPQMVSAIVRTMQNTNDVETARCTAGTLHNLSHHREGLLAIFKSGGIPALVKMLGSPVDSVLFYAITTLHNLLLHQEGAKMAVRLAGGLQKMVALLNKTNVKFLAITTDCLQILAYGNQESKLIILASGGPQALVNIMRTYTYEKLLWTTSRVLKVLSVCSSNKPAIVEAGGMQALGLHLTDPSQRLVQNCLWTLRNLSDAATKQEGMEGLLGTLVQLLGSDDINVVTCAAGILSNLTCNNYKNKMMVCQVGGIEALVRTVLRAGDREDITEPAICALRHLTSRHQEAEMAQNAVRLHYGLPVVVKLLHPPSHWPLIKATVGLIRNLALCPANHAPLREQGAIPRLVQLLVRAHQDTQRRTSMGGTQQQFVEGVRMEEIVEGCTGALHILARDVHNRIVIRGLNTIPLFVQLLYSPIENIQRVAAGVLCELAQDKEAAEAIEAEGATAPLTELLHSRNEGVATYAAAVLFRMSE
Experimental: To collect detailed kinetic data of the binding measured as the rate constants of the association (ka) and dissociation (kd) of the complex, a concentration series of the analyte ranging from 1.95 up to 62.5 nM was injected over the covalently immobilized Armadillo repeats domain onto the sensor chip surface and the interaction between the analyte and the ligand was detected as a measure of the change in mass concentration upon the surface, expressed in resonance units (RUs) and compared to the baseline.
Full kinetic analysis of the binding interaction between 9 when binding to the Armadillo domain is shown in Figure 4, with the calculated binding parameters listed in the bottom table. As evidenced by the sensorgram obtained at different analyte concentrations, the dissociation rate constant of 9 is very slow, thereby resulting in a low nanomolar equilibrium affinity constant (KD) of the binding calculated as the ratio of kd/ka (Figure 4).
Figure 4 SPR kinetic analysis. […]
The analyte 9 was dialyzed in the running buffer (1% final DMSO concentration) and injected at different concentrations for 120 s onto the sensor chip at a constant flow rate of 50 μL/min. […] The equilibrium dissociation constant (KD) was determined by the ratio Koff/Kon. […]

O=S(=O)(Nc1ccc(-c2ccccn2)cc1)c1ccc(Br)cc1 [Compound 9, 4-Bromo-N-(4-(pyridin-2-yl)phenyl)benzenesulfonamide]
effect on MDA-MB-231 cell proliferation (MDA-MB-231 cells): less effective | kon [1]: 293000 M⁻¹ s⁻¹
